Assay results published in patent US12637469B2, “1H-pyrazole derivative and application thereof as dual target inhibitor of Syk and VEGFR2” (Ocumension Therapeutics (Suzhou) Co., Ltd., priority 2020, dated 2026).

Target: VEGFR2 kinase (KDR enzyme) (Homo sapiens, UniProt P35968)
Experiment: In vitro inhibitory effect on VEGFR2 kinase (ADP-Glo enzymatic experiment)
Assay type: biochemical
Settings: read-out: IC50 (nM) for inhibition of VEFGR2 enzyme
Description: The VEGFR2 kinase assay kit is intended for measuring VEGFR2 kinase activity using Kinase-Glo®MAX as a detection reagent, and compound screening and analysis were conducted using the IC50 value of the compound as an indicator.
The ADP-GLO™ Kinase Assay is an analytical reaction in which a luminescent kinase is used to determine the adenosine diphosphate formed by the kinase; ADP is converted to ATP, i.e., an optical signal is generated by Ultra-Glo™ luciferase. The optical signal is positively correlated with ADP quantity and kinase activity. This assay is ideal for determining the activity of the compound, making it ideal for primary screening and kinase selectivity analysis. The ADP-Glo™ Kinase Assay can be used to monitor the activity of virtually any ADP-producing enzyme such as a kinase orATPase: • 1) The enzyme, substrate, ATP and inhibitor were diluted in a kinase buffer; • 2) 384-well plate: 1 μL of inhibitor or (5% dimethyl sulfoxide solution), 2 μL of KDR enzyme, 2 μL of matrix/ATP mixture; • 3) the mixture was incubated at room temperature for 60 minutes; • 4) 5 μL of ADP-GLO™ reagent was added; • 5) the mixture was incubated for 40 minutes at room temperature; • 6) 10 μL of kinase detection reagent was added; • 7) the mixture was incubated at room temperature for 30 minutes; • 8) the luminescence was recorded (integration time 0.5-1 sec). The data was shown in relative light units (rlu), which was directly related to the amount of […]. There was correlation between the percent of the conversion from ATP to ADP for each kinase amount and the corresponding signal-to-background ratio. • 9) Data analysis: (a) KDR enzyme was titrated with 50 μM of ATP, and the luminescent signal produced by KDR enzyme was shown; (b) staurosporine dose response was generated with 1.5 ng of KDR to determine the IC50 value of the inhibitor.

Chain of VEGFR2 kinase (KDR enzyme) (P35968 20-1356, species assumed): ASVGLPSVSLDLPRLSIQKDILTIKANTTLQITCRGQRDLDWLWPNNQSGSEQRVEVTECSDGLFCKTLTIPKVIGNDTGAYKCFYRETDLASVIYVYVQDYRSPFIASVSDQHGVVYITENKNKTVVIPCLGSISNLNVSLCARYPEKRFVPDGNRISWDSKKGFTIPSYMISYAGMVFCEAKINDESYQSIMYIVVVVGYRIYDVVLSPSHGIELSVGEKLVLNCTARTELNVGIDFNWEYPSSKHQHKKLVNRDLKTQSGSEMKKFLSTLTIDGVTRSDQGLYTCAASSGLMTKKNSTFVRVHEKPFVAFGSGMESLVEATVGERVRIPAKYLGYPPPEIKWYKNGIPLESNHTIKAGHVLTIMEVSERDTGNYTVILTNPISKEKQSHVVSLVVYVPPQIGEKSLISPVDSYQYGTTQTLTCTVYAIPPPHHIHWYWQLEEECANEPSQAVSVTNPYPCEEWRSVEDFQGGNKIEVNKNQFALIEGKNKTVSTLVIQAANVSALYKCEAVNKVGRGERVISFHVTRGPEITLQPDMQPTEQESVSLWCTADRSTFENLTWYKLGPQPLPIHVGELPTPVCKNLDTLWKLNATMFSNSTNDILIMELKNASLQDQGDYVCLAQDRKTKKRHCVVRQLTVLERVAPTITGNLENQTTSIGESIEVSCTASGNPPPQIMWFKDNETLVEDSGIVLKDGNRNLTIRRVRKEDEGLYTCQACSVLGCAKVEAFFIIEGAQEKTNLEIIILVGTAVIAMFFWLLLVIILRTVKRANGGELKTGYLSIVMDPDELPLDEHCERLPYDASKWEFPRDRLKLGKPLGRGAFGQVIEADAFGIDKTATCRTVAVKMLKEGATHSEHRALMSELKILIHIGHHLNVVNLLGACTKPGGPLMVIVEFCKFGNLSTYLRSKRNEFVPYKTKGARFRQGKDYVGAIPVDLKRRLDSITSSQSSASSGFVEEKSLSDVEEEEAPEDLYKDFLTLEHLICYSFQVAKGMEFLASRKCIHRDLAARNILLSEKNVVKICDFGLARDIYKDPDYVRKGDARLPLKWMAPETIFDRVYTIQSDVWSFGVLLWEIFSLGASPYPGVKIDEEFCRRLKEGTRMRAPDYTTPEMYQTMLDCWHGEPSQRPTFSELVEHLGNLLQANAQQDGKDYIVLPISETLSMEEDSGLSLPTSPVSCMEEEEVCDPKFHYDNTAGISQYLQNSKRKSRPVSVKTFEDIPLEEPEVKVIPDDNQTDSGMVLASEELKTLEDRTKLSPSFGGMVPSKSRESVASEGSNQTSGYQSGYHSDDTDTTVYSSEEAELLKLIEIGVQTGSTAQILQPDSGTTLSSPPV

- IC50: 23 nM
Structure (SMILES): c1cn2c(n1)c(Nc1ccc(N3CCOCC3)cc1)nc1ccc(-c3cn[nH]c3)cc12 [Compound 1]
